Measurements from PubChem BioAssay AID328 (DTP/NCI, 2004).
Values joined by “and” are separate entries in the source; they are usually repeats but may differ in a detail not shown here. Identical values can stand only once. Toxic doses and inconclusive results are not listed.

Tested on: BDF1 mice, P388 leukemia ip, median survival T/C
Experiment: NCI In Vivo Anticancer Drug Screen. Data for tumor model P388 Leukemia (intraperitoneal) in B6D2F1 (BDF1) mice
Conditions: endpoint: median survival time, higher = longer survival
In short: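 Each value expresses how treatment altered survival: treated-mouse outcome over vehicle-mouse outcome, both groups bearing the transplanted tumour.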

[1] = dose: 100.0 mg/kg/injection, schedule: Q01DX009 (ip), vehicle: saline with Tween-80
[2] = dose: 200.0 mg/kg/injection, schedule: Q01DX009 (ip), vehicle: saline with Tween-80
[3] = dose: 25.0 mg/kg/injection, schedule: Q01DX009 (ip), vehicle: saline with Tween-80
[4] = dose: 50.0 mg/kg/injection, schedule: Q01DX009 (ip), vehicle: saline with Tween-80
[5] = dose: 400.0 mg/kg/injection, schedule: Q04DX003 (ip), vehicle: saline with Tween-80
[6] = dose: 25.0 mg/kg/injection, schedule: Q01DX009 (ip), vehicle: saline
[7] = dose: 12.5 mg/kg/injection, schedule: Q01DX009 (ip), vehicle: saline

CN(C)c1ccc2cc(S(=O)(=O)O)cc(O)c2c1
T/C [1]: 95 % of control | T/C [2]: 91 % of control | T/C (dose: 400.0 mg/kg/injection, schedule: Q01DX009 (ip), vehicle: saline with Tween-80): 91 % of control

O=c1[nH]cnc2[nH]ccc12
T/C (dose: 6.25 mg/kg/injection, schedule: Q01DX009 (ip), vehicle: saline with Tween-80): 99 % of control | T/C (dose: 12.5 mg/kg/injection, schedule: Q01DX009 (ip), vehicle: saline with Tween-80): 103 % of control | T/C [3]: 96 % of control | T/C [4]: 99 % of control

O=Cc1ccc(C(Cl)(Cl)Cl)cc1
T/C [4]: 92 % of control | T/C [2]: 122 % of control | T/C [5]: 163 % of control

Cc1ncc([N+](=O)[O-])n1CCOc1c(Br)cc(Br)cc1CN(C)C1CCCCC1
T/C (dose: 100.0 mg/kg/injection, schedule: Q04DX003 (ip), vehicle: saline with Tween-80): 100 % of control | T/C (dose: 200.0 mg/kg/injection, schedule: Q04DX003 (ip), vehicle: saline with Tween-80): 105 % of control | T/C [5]: 115 % of control

Oc1c(Cl)cc(Cl)cc1/C=N/c1nc(-c2ccc(Cl)cc2)cs1
T/C (dose: 0.78 mg/kg/injection, schedule: Q01DX009 (ip), vehicle: saline with Tween-80): 100 % of control | T/C (dose: 1.56 mg/kg/injection, schedule: Q01DX009 (ip), vehicle: saline with Tween-80): 96 % of control | T/C (dose: 3.12 mg/kg/injection, schedule: Q01DX009 (ip), vehicle: saline with Tween-80): 105 % of control

O=C1C(=O)c2ccccc2-c2ccccc21.O=C1C(=O)c2ccccc2-c2ccccc21.[Hg]
T/C (dose: 1.5 mg/kg/injection, schedule: Q01DX009 (ip), vehicle: saline with Tween-80): 110 % of control | T/C (dose: 2.6 mg/kg/injection, schedule: Q01DX009 (ip), vehicle: saline with Tween-80): 100 % of control | T/C (dose: 3.0 mg/kg/injection, schedule: Q01DX009 (ip), vehicle: saline with Tween-80): 112 % of control | T/C (dose: 4.0 mg/kg/injection, schedule: Q01DX009 (ip), vehicle: saline with Tween-80): 110 % of control | T/C (dose: 6.0 mg/kg/injection, schedule: Q01DX009 (ip), vehicle: saline with Tween-80): 116 % of control | T/C (dose: 9.0 mg/kg/injection, schedule: Q01DX009 (ip), vehicle: saline with Tween-80): 110 % of control

CN1CCC2=C(C1)C(c1ccccc1)c1ccccc12 (stereo not given)
T/C [6]: 106 % of control

[Cl][Pb]([Cl])([c]1ccccc1)[c]1ccccc1
T/C [3]: 91 % of control | T/C [4]: 87 % of control | T/C [1]: 97 % of control

Cc1ccc(S(=O)(=O)N(c2ccccc2)c2ccccc2)cc1
T/C (dose: 87.5 mg/kg/injection, schedule: Q01DX009 (ip), vehicle: saline with Tween-80): 96 % of control | T/C (dose: 175.0 mg/kg/injection, schedule: Q01DX009 (ip), vehicle: saline with Tween-80): 96 % of control | T/C (dose: 350.0 mg/kg/injection, schedule: Q01DX009 (ip), vehicle: saline with Tween-80): 101 % of control

O=C(Nc1ccccc1F)Nc1cc(Cl)ccc1Cl
T/C (dose: 50.0 mg/kg/injection, schedule: Q04DX003 (ip), vehicle: saline sonified): 90 % of control | T/C (dose: 100.0 mg/kg/injection, schedule: Q04DX003 (ip), vehicle: saline sonified): 86 % of control | T/C (dose: 200.0 mg/kg/injection, schedule: Q04DX003 (ip), vehicle: saline sonified): 90 % of control

Cc1cc(N(C)C)c2ccc3cc4ccccc4cc3c2n1
T/C [3]: 95 % of control | T/C [4]: 95 % of control and 114 % of control | T/C [1]: 92 % of control and 121 % of control

COc1ccc2c(c1)N(C)CCCC2=O
T/C (dose: 3.12 mg/kg/injection, schedule: Q01DX009 (ip), vehicle: saline): 91 % of control | T/C (dose: 6.25 mg/kg/injection, schedule: Q01DX009 (ip), vehicle: saline): 103 % of control | T/C [7]: 91 % of control | T/C [6]: 87 % of control and 91 % of control | T/C (dose: 50.0 mg/kg/injection, schedule: Q01DX009 (ip), vehicle: saline): 108 % of control and 113 % of control | T/C (dose: 50.0 mg/kg/injection, schedule: Q04DX003 (ip), vehicle: saline): 99 % of control | T/C (dose: 100.0 mg/kg/injection, schedule: Q01DX009 (ip), vehicle: saline): 92 % of control | T/C (dose: 100.0 mg/kg/injection, schedule: Q04DX003 (ip), vehicle: saline): 103 % of control | T/C (dose: 200.0 mg/kg/injection, schedule: Q01DX009 (ip), vehicle: saline): 89 % of control | T/C (dose: 200.0 mg/kg/injection, schedule: Q04DX003 (ip), vehicle: saline): 99 % of control

COc1ccc(S(=O)(=O)Nc2c([N+](=O)[O-])cc([N+](=O)[O-])c3ccccc23)cc1
T/C [3]: 102 % of control | T/C [4]: 100 % of control

CC1=CC2C(O)(CC(CO)=CC3C4C(C)(C)C4(OC(=O)c4ccccc4)C(OC(=O)c4ccccc4)C(C)C32O)C1=O (stereo not given)
T/C (dose: 0.03 mg/kg/injection, schedule: Q01DX009 (ip), vehicle: Klucel (hydroxypropylcellulose) (HPC)): 95 % of control | T/C (dose: 0.03 mg/kg/injection, schedule: Q01DX009 (ip), vehicle: saline + alcohol): 93 % of control | T/C (dose: 0.06 mg/kg/injection, schedule: Q01DX009 (ip), vehicle: Klucel (hydroxypropylcellulose) (HPC)): 99 % of control | T/C (dose: 0.06 mg/kg/injection, schedule: Q01DX009 (ip), vehicle: saline + alcohol): 94 % of control | T/C (dose: 0.12 mg/kg/injection, schedule: Q01DX009 (ip), vehicle: Klucel (hydroxypropylcellulose) (HPC)): 99 % of control | T/C (dose: 0.12 mg/kg/injection, schedule: Q01DX009 (ip), vehicle: saline + alcohol): 112 % of control | T/C (dose: 0.25 mg/kg/injection, schedule: Q01DX009 (ip), vehicle: Klucel (hydroxypropylcellulose) (HPC)): 94 % of control | T/C (dose: 0.25 mg/kg/injection, schedule: Q01DX009 (ip), vehicle: saline + alcohol): 119 % of control | T/C (dose: 0.5 mg/kg/injection, schedule: Q01DX009 (ip), vehicle: Klucel (hydroxypropylcellulose) (HPC)): 89 % of control | T/C (dose: 0.5 mg/kg/injection, schedule: Q01DX009 (ip), vehicle: saline + alcohol): 119 % of control | T/C (dose: 1.0 mg/kg/injection, schedule: Q01DX009 (ip), vehicle: Klucel (hydroxypropylcellulose) (HPC)): 110 % of control | T/C (dose: 1.0 mg/kg/injection, schedule: Q01DX009 (ip), vehicle: saline + alcohol): 92 % of control | T/C (dose: 3.1 micrograms/kg/injection, schedule: Q01DX009 (ip), vehicle: gum acacia): 116 % of control | T/C (dose: 3.1 micrograms/kg/injection, schedule: Q01DX009 (ip), vehicle: saline + alcohol): 172 % of control | T/C (dose: 3.1 micrograms/kg/injection, schedule: Q01DX009 (ip), vehicle: saline with Tween-80): 88 % of control and 118 % of control | T/C (dose: 6.2 micrograms/kg/injection, schedule: Q01DX009 (ip), vehicle: gum acacia): 110 % of control | T/C (dose: 6.2 micrograms/kg/injection, schedule: Q01DX009 (ip), vehicle: saline + alcohol): 118 % of control | T/C (dose: 6.2 micrograms/kg/injection, schedule: Q01DX009 (ip), vehicle: saline with Tween-80): 119 % of control | T/C (dose: 12.5 micrograms/kg/injection, schedule: Q01DX009 (ip), vehicle: gum acacia): 107 % of control | T/C (dose: 12.5 micrograms/kg/injection, schedule: Q01DX009 (ip), vehicle: saline + alcohol): 110 % of control | T/C (dose: 12.5 micrograms/kg/injection, schedule: Q01DX009 (ip), vehicle: saline with Tween-80): 98 % of control and 121 % of control | T/C (dose: 25.0 micrograms/kg/injection, schedule: Q01DX009 (ip), vehicle: gum acacia): 108 % of control | T/C (dose: 25.0 micrograms/kg/injection, schedule: Q01DX009 (ip), vehicle: saline + alcohol): 110 % of control | T/C (dose: 25.0 micrograms/kg/injection, schedule: Q01DX009 (ip), vehicle: saline with Tween-80): 93 % of control | T/C (dose: 50.0 micrograms/kg/injection, schedule: Q01DX009 (ip), vehicle: gum acacia): 110 % of control | T/C (dose: 50.0 micrograms/kg/injection, schedule: Q01DX009 (ip), vehicle: saline + alcohol): 116 % of control | T/C (dose: 100.0 micrograms/kg/injection, schedule: Q01DX009 (ip), vehicle: gum acacia): 105 % of control | T/C (dose: 100.0 micrograms/kg/injection, schedule: Q01DX009 (ip), vehicle: saline + alcohol): 110 % of control | T/C (dose: 100.0 micrograms/kg/injection, schedule: Q01DX009 (ip), vehicle: saline with Tween-80): 104 % of control | T/C (dose: 200.0 micrograms/kg/injection, schedule: Q01DX009 (ip), vehicle: gum acacia): 110 % of control | T/C (dose: 200.0 micrograms/kg/injection, schedule: Q01DX009 (ip), vehicle: saline + alcohol): 150 % of control | T/C (dose: 200.0 micrograms/kg/injection, schedule: Q01DX009 (ip), vehicle: saline with Tween-80): 107 % of control and 116 % of control | T/C (dose: 400.0 micrograms/kg/injection, schedule: Q01DX009 (ip), vehicle: saline + alcohol): 116 % of control | T/C (dose: 800.0 micrograms/kg/injection, schedule: Q01DX009 (ip), vehicle: gum acacia): 96 % of control | T/C (dose: 800.0 micrograms/kg/injection, schedule: Q01DX009 (ip), vehicle: saline + alcohol): 96 % of control | T/C (dose: 800.0 micrograms/kg/injection, schedule: Q01DX009 (ip), vehicle: saline with Tween-80): 98 % of control and 110 % of control

C[CH2][Sn]([CH2]C)([O]S(=O)(=O)CC12CCC(CC1=O)C2(C)C)[O]S(=O)(=O)CC12CCC(CC1=O)C2(C)C
T/C [7]: 173 % of control | T/C [6]: 195 % of control
